# Molecular target: T1, C1101 in reticulon 4 (RTN4, Uniprot ID Q9NQC3-1) (Homo sapiens, UniProt Q9NQC3)
# T1 construct: endogenous in cells; host or cells: SW620 colorectal cancer cell lysate
# T1 sequence (Q9NQC3 1-1192): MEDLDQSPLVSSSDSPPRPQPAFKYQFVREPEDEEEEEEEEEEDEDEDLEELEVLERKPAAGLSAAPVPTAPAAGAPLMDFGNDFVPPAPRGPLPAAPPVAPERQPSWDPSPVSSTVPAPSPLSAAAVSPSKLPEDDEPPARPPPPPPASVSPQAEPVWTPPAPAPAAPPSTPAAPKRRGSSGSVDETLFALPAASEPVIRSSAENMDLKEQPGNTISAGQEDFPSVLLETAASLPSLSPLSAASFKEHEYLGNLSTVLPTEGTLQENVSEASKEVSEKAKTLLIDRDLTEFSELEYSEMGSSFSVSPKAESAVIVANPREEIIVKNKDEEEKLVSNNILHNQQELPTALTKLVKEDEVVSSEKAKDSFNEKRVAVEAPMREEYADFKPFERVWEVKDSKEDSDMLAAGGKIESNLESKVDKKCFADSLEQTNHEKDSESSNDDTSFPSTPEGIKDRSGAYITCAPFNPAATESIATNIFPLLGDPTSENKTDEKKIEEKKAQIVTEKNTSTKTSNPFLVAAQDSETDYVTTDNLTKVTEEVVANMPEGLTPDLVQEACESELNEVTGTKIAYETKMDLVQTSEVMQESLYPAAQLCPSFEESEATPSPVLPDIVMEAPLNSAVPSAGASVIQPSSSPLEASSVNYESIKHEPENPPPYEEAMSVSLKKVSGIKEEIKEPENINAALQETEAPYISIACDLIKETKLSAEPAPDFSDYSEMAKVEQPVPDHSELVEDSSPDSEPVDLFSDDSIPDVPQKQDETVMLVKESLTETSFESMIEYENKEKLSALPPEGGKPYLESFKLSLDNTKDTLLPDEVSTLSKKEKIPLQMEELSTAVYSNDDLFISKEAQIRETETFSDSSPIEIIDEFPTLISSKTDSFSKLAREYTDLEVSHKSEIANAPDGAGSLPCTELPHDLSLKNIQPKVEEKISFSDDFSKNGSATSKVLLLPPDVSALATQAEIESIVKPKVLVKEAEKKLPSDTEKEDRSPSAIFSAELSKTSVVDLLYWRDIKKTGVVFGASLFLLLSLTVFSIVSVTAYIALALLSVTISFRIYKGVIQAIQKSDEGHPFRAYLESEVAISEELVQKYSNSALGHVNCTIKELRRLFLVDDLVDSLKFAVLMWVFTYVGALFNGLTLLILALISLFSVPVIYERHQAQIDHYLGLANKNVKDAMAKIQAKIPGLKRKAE
# Assay: Competitive isoTOP-ABPP against IAyne labeling in SW620 proteomes: RTN4 C1101
# Assay type: binding
# From the text: We next performed isoTOP-ABPP studies to identify the direct targets of these lead compounds. We competed either vehicle or DKM 3-30 against labeling of SW620 proteomes with a broad cysteine-reactive probe, iodoacetamide-alkyne (IAyne), followed by appending probe-labeled proteins with a biotin-azide tag bearing a TEV protease recognition site and an isotopically light (for vehicle-treated) or heavy (for fragment-treated) tags via copper catalyzed azide-alkyne cycloaddition (CuAAC)^6,9. We then combined control and treated proteomes in a 1:1 ratio, enriched probe-labeled proteins with avidin, and digested proteomes with trypsin. Avidin-enriched probe-modified tryptic peptides were released by TEV protease digestion for subsequent quantitative proteomic analysis. Through these studies, we identified the top hit for DKM 3-30 as C1101 in reticulon 4 (RTN4, Uniprot ID Q9NQC3-1) with a light to heavy ratio of 3.0 (FIG. 2A; Table 2).
# IsoTOP-ABPP Analysis. IsoTOP-ABPP analyses were performed as previously described^5-7. For competitive IsoTOP-ABPP, SW620 cell lysates were pre-incubated with DMSO vehicle or DKM 3-30 (50 μM) for 30 min at 37° C. in phosphate-buffered saline (PBS), and then labeled with IAyne (100 μM) for 1 h at room temperature. […]
structure (smiles),measurement,setting,value
"C=CC(=O)Nc1ccc(Oc2ccc(Cl)cc2)cc1 [DKM 3-30, N-(4-(4-chlorophenoxy)phenyl)acrylamide]",light to heavy ratio,"DKM 3-30 50 μM, 30 min 37° C., then IAyne 100 μM, ratio >3 indicates bound sites",3.0
same,"Ave area ratio (light to heavy ratio), peptide YSNSALGHVNC*TIK, C1101, Q9NQC3","SW620 cell proteomes pre-treated with DMSO (light) or ligand 50 μM (heavy) 30 min at 37° C., then IAyne 100 μM 1h, averaged over runs",3.04

# From patent US20200062696A1, “COMPOSITIONS AND METHODS FOR INHIBITING RETICULON 4” (THE REGENTS OF THE UNIVERSITY OF CALIFORNIA, priority 2017, published 2020)
